Test results published in paper PMC11212140, “Molecular Bidents with Two Electrophilic Warheads as a New Pharmacological Modality” (ACS Central Science, 2024).

Experiments:
Test in all cases: KiNativ profiling in H3255 cells
Assay type in all cases: cell-based, human
ATM = test system: T1, ATM; conditions: 2.5 µM; ATP; QLVKGRDDLRQDAVMQQVFQMCNTLLQR
T1 construct: purchased ActivX Biosciences (KiNativ)
Method: (§1) H3255 cells were plated with 6.5x10^6 per condition in fresh media in 15 cm plates and treated the 80% confluency for 2 hours with DMSO or 2.5 μM of ZNL-0056. To harvest cells, plates were washed 3 times with cold PBS, then collected by scraping into 4 mL of cold PBS containing protease and phosphatase inhibitors. Cells were pelleted by centrifugation at 1350 g at 4 ℃ for 5 minutes and immediately frozen in liquid nitrogen. The frozen samples were sent to ActivX Biosciences (La Jolla, CA) for the remainder of the KiNativ profiling experiment4. […]

CLK2 = test system: T2, CLK2; conditions: 2.5 µM; Lys2; LTHTDLKPENILFVNSDYELTYNLEK
T2 construct: purchased ActivX Biosciences (KiNativ)
Method: as §1

CLK3 = test system: T3, CLK3; conditions: 2.5 µM
T3 construct: purchased ActivX Biosciences (KiNativ)
Method: as §1

FRAP = test system: T4, FRAP; conditions: 2.5 µM; ATP; IQSIAPSLQVITSKQRPR
T4 construct: purchased ActivX Biosciences (KiNativ)
Method: as §1

HER3/ErbB3 = test system: T5, HER3/ErbB3; conditions: 2.5 µM
T5 construct: purchased ActivX Biosciences (KiNativ)
Method: as §1

IKKe, TBK1 = conditions: 2.5 µM; Lys2; DIKPGNIMR
Method: as §1

LATS1 = test system: T6, LATS1; conditions: 2.5 µM
T6 construct: purchased ActivX Biosciences (KiNativ)
Method: as §1

LATS2 = test system: T7, LATS2; conditions: 2.5 µM
T7 construct: purchased ActivX Biosciences (KiNativ)
Method: as §1

LOK = test system: T8, LOK; conditions: 2.5 µM; Lys2; DLKAGNVLMTLEGDIR
T8 construct: purchased ActivX Biosciences (KiNativ)
Method: as §1

MAP4K5 = test system: T9, MAP4K5; conditions: 2.5 µM
T9 construct: purchased ActivX Biosciences (KiNativ)
Method: as §1

MAPKAPK3 = test system: T10, MAPKAPK3; conditions: 2.5 µM; ATP Loop; QVLGLGVNGKVLECFHR
T10 construct: purchased ActivX Biosciences (KiNativ)
Method: as §1

MLKL = test system: T11, MLKL; conditions: 2.5 µM; Lys1; APVAIKVFK
T11 construct: purchased ActivX Biosciences (KiNativ)
Method: as §1

MST1 = test system: T12, MST1; conditions: 2.5 µM; Lys1; ETGQIVAIKQVPVESDLQEIIK
T12 construct: purchased ActivX Biosciences (KiNativ)
Method: as §1

MST2 = test system: T13, MST2; conditions: 2.5 µM; Lys1; ESGQVVAIKQVPVESDLQEIIK
T13 construct: purchased ActivX Biosciences (KiNativ)
Method: as §1

MST3 = test system: T14, MST3; conditions: 2.5 µM; Lys2; DIKAANVLLSEHGEVK
T14 construct: purchased ActivX Biosciences (KiNativ)
Method: as §1

NEK3 = test system: T15, NEK3; conditions: 2.5 µM; Activation Loop; SKNIFLTQNGK
T15 construct: purchased ActivX Biosciences (KiNativ)
Method: as §1

PCTAIRE1, PCTAIRE3 = conditions: 2.5 µM; Lys2; DLKPQNLLINER
Method: as §1

PCTAIRE2, PCTAIRE3 = conditions: 2.5 µM; Lys1; SKLTENLVALKEIR
Method: as §1

PIK3C3 = test system: T16, PIK3C3; conditions: 2.5 µM; ATP; TEDGGKYPVIFKHGDDLRQDQLILQIISLMDK
T16 construct: purchased ActivX Biosciences (KiNativ)
Method: as §1

PLK2 = test system: T17, PLK2; conditions: 2.5 µM; Lys2; DLKLGNFFINEAMELK
T17 construct: purchased ActivX Biosciences (KiNativ)
Method: as §1

RIPK2 = test system: T18, RIPK2; conditions: 2.5 µM; Lys1; VQVAVKHLHIHTPLLDSER
T18 construct: purchased ActivX Biosciences (KiNativ)
Method: as §1

ROCK1 = test system: T19, ROCK1; conditions: 2.5 µM; Other; KLQLELNQER
T19 construct: purchased ActivX Biosciences (KiNativ)
Method: as §1

RON = test system: T20, RON; conditions: 2.5 µM; Lys1; IQCAIKSLSR
T20 construct: purchased ActivX Biosciences (KiNativ)
Method: as §1

RSK2 domain2 = test system: T21, RSK2 domain2; conditions: 2.5 µM; Lys2; DLKPSNILYVDESGNPESIR
T21 construct: RSK2 domain2; purchased ActivX Biosciences (KiNativ)
Method: as §1

RSK3 domain1 = test system: T22, RSK3 domain1; conditions: 2.5 µM; Lys2; DLKPENILLDEEGHIKITDFGLSK
T22 construct: RSK3 domain1; purchased ActivX Biosciences (KiNativ)
Method: as §1

SBK = test system: T23, SBK; conditions: 2.5 µM; Lys2; DIKPENVLLFDR
T23 construct: purchased ActivX Biosciences (KiNativ)
Method: as §1

SGK = test system: T24, SGK; conditions: 2.5 µM
T24 construct: purchased ActivX Biosciences (KiNativ)
Method: as §1

TBK1 = test system: T25, TBK1; conditions: 2.5 µM; Lys1; TGDLFAIKVFNNISFLRPVDVQMR
T25 construct: purchased ActivX Biosciences (KiNativ)
Method: as §1

TNK1 = test system: T26, TNK1; conditions: 2.5 µM; Lys1; SVPVAVKSLR
T26 construct: purchased ActivX Biosciences (KiNativ)
Method: as §1

YES = test system: T27, YES; conditions: 2.5 µM; Lys1; VAIKTLKPGTMMPEAFLQEAQIMK
T27 construct: purchased ActivX Biosciences (KiNativ)
Method: as §1

p38a = test system: T28, p38a; conditions: 2.5 µM
T28 construct: purchased ActivX Biosciences (KiNativ)
Method: as §1

p70S6K = test system: T29, p70S6K; conditions: 2.5 µM
T29 construct: purchased ActivX Biosciences (KiNativ)
Method: as §1

[1] = ATP Loop, YEIVGNLGEGTFGKVVECLDHAR
[2] = Lys2, FLHENQLTHTDLKPENILFVNSEFETLYNEHK
[3] = Activation Loop, SPSQVQVADFGVADLLPPDDKQLLYSEAKTPIK

Row | SMILES | Inhibition (ATM) | Inhibition (CLK2) | Inhibition (CLK3; [1]) | Inhibition (CLK3; [2]) | Inhibition (FRAP) | Inhibition (HER3/ErbB3; [3]) | Inhibition (HER3/ErbB3; Lys1, GVWIPEGESIKIPVCIKVIEDK) | Inhibition (IKKe, TBK1) | Inhibition (LATS1; Lys1, ALYATKTLR) | Inhibition (LATS1; Lys2, DIKPDNILIDR) | Inhibition (LATS2; Lys1, VDTHALYAMKTLR) | Inhibition (LATS2; Lys2, DIKPDNILIDLDGHIK) | Inhibition (LOK) | Inhibition (MAP4K5; Lys1, NVHTGELAAVKIIK) | Inhibition (MAP4K5; Lys2, DIKGANILLTDHGDVK) | Inhibition (MAPKAPK3) | Inhibition (MLKL) | Inhibition (MST1) | Inhibition (MST2) | Inhibition (MST3) | further results
1 | C=CC(=O)Nc1cc(Nc2nccc(-c3cn(C)c4ccccc34)n2)c(OC)cc1N(C)CCN(C)C [Osimertinib, osimertinib, reference compound] | 24.6% | 26.6% | -8.7% | -18.4% | -39.1% | -24.2% | -64.6% | -9.4% | -8.1% | 5.0% | -12.9% | -15.6% | -8.3% | -13.4% | -6.7% | -14.1% | -10.0% | -24.9% | -13.5% | -15.5% | Inhibition (NEK3): -0.9%; Inhibition (PCTAIRE1, PCTAIRE3): 8.7%; Inhibition (PCTAIRE2, PCTAIRE3): -33.1%; Inhibition (PIK3C3): -7.5%; Inhibition (PLK2): 10.4%; Inhibition (RIPK2): 51.7%; Inhibition (ROCK1): -7.6%; Inhibition (RON): 8.9%; Inhibition (RSK2 domain2): -16.8%; Inhibition (RSK3 domain1): -9.7%; Inhibition (SBK): -14.3%; Inhibition (SGK; Lys1, HKAEEVFYAVKVLQK): 13.2%; Inhibition (SGK; Lys2, DLKPENILLDSQGHIVLTDFGLCK): -15.1%; Inhibition (TBK1): -18.1%; Inhibition (TNK1): 58.2%; Inhibition (YES): 19.6%; Inhibition (p38a; Lys2, DLKPSNLAVNEDCELK): 19.9%; Inhibition (p38a; Other, QELNKTIWEVPER): 12.6%; Inhibition (p70S6K; Lys1, IFAMKVLK): -2.7%; Inhibition (p70S6K; Lys2, DLKPENIMLNHQGHVK): -39.3%
2 | C=CC(=O)Nc1cc(C(=O)Nc2nc3cccc(C)c3n2[C@@H]2CCCCN(C(=O)C=C)C2)cs1 [ZNL-0056] | -1.9% | 9.5% | 10.0% | 13.8% | -27.2% | 25.6% | -12.4% | 1.9% | 3.8% | 20.9% | 15.4% | 23.5% | -15.4% | -3.7% | 15.2% | 4.1% | 4.5% | -5.5% | -6.8% | -1.1% | Inhibition (NEK3): -5.3%; Inhibition (PCTAIRE1, PCTAIRE3): -3.3%; Inhibition (PCTAIRE2, PCTAIRE3): -16.7%; Inhibition (PIK3C3): 6.7%; Inhibition (PLK2): 18.8%; Inhibition (RIPK2): -9.6%; Inhibition (ROCK1): -20.4%; Inhibition (RON): -9.0%; Inhibition (RSK2 domain2): 4.0%; Inhibition (RSK3 domain1): 5.4%; Inhibition (SBK): 9.6%; Inhibition (SGK; Lys1, HKAEEVFYAVKVLQK): 12.6%; Inhibition (SGK; Lys2, DLKPENILLDSQGHIVLTDFGLCK): 1.7%; Inhibition (TBK1): 5.3%; Inhibition (TNK1): 8.0%; Inhibition (YES): -13.4%; Inhibition (p38a; Lys2, DLKPSNLAVNEDCELK): -10.4%; Inhibition (p38a; Other, QELNKTIWEVPER): -5.0%; Inhibition (p70S6K; Lys1, IFAMKVLK): 23.2%; Inhibition (p70S6K; Lys2, DLKPENIMLNHQGHVK): -10.8%
